SMILES strings stand for the structures.

For orientation: IC50 means the concentration that gives 50% inhibition. By melting point is commonly meant the temperature of the solid-liquid transition.

The first series has as its system Entamoeba histolytica strain HM1-IMSS. Description: In vitro antiprotozoal assay (trophozoite subculture method). Type of series: cell-based. The conditions noted are these: Entamoeba histolytica; trophozoites, 48 h with compound then 48 h subculture without drug; read-out: IC50 (µM) E. histolytica. As for the experimental part:
(§1) The in vitro antiprotozoal assays against E. histolytica, G. intestinalis, and T. vaginalis of the 2-phenyl-2H-indazole and 2,3-diphenyl-2H-indazole derivatives were carried out following the method previously described. Metronidazole (MTZ) and albendazole (ABZ) were used as reference drugs. […] Similarly, compound 7, having a phenyl at position 2, has good activity against the three protozoa, ranking third in activity for T. vaginalis and forth against G. intestinalis and E. histolytica. […] These derivatives had groups H, COOCH3, Cl, and SO2CH3 at positions 2 and 3, substituents that induced the best response in 2-phenyl-2H-indazole derivatives. In addition, carboxylic acids 20 and 25 were of interest for comparative purposes with ester derivatives.
(§2) Trichomonas vaginalis strain GT3, Giardia intestinalis isolate IMSS:0981:1, and Entamoeba histolytica strain HM1-IMSS were used. Trophozoites of G. intestinalis were maintained in a TYI-S-33 medium supplemented with 10% calf serum and bovine bile. E. histolytica and T. vaginalis trophozoites were maintained in TYI-S-33 medium supplemented with 10% bovine serum. Briefly, 5 × 10^4 trophozoites of G. intestinalis or T. vaginalis, or 6 × 10^3 trophozoites of E. histolytica were incubated for 48 h at 37 °C with different concentrations of the compound to be tested, each added as solutions in DMSO. As a negative control, parasite cultures received an equivalent amount of DMSO only, while albendazole and metronidazole were included as positive controls. At the end of the treatment period, the cells were washed and subcultured for another 48 h in a fresh medium to which no drug was added. […] Experiments were carried out in triplicate and repeated at least twice.
Regarding `Clc1ccc(-n2cc3ccccc3n2)cc1` [Compound 8, 2-(4-Chlorophenyl)-2H-indazole], the IC50 turned out to be 0.0415 ± 0.0031 µM.

As for `COc1ccc(-n2cc3ccccc3n2)cc1` [Compound 9, 2-(4-Methoxyphenyl)-2H-indazole], the IC50 turned out to be 0.154 ± 0.0158 µM.

As for `CSc1ccc(-n2cc3ccccc3n2)cc1` [Compound 11, 2-(4-(Methylthio)phenyl)-2H-indazole], the IC50 worked out at 0.0978 ± 0.0147 µM.

Turning to `Oc1ccc(-n2cc3ccccc3n2)cc1` [Compound 12, 4-(2H-Indazol-2-yl) phenol], the IC50 is 0.0737 ± 0.0101 µM.

In the case of `O=C(O)c1ccc(-n2cc3ccccc3n2)cc1` [Compound 13, 4-(2H-Indazol-2-yl) benzoic acid], the IC50 stood at 0.0965 ± 0.0059 µM.

Turning to `C[S+]([O-])c1ccc(-n2cc3ccccc3n2)cc1` (centres unmarked) [Compound 14, 2-(4-(Methylsulfinyl)phenyl)-2H-indazole], the IC50 is 0.0878 ± 0.0083 µM.

With `Cc1ncc([N+](=O)[O-])n1CCO` [MTZ, Metronidazole, reference compound], the IC50 worked out at 0.38 ± 0.146 µM.

The subject of the next series is Giardia intestinalis isolate IMSS:0981:1. Described as above. It is filed as cell-based. The conditions noted are these: Giardia duodenalis; trophozoites, 48 h with compound then 48 h subculture without drug; read-out: IC50 (µM) G. intestinalis. The procedure:
as §1, §2
As for `Clc1ccc(-n2cc3ccccc3n2)cc1` [Compound 8, 2-(4-Chlorophenyl)-2H-indazole], the IC50 was 0.0634 ± 0.0031 µM.

Regarding `COc1ccc(-n2cc3ccccc3n2)cc1` [Compound 9, 2-(4-Methoxyphenyl)-2H-indazole], the IC50 amounted to 0.205 ± 0.0063 µM.

Take `CSc1ccc(-n2cc3ccccc3n2)cc1` [Compound 11, 2-(4-(Methylthio)phenyl)-2H-indazole]: the IC50 was determined as 0.218 ± 0.0088 µM.

`Oc1ccc(-n2cc3ccccc3n2)cc1` [Compound 12, 4-(2H-Indazol-2-yl) phenol]: the IC50 turned out to be 0.119 ± 0.0067 µM.

For the compound `O=C(O)c1ccc(-n2cc3ccccc3n2)cc1` [Compound 13, 4-(2H-Indazol-2-yl) benzoic acid], the IC50 came out at 0.193 ± 0.0119 µM.

`C[S+]([O-])c1ccc(-n2cc3ccccc3n2)cc1` (centres unmarked) [Compound 14, 2-(4-(Methylsulfinyl)phenyl)-2H-indazole]: the IC50 is 0.168 ± 0.011 µM.

For the compound `Cc1ncc([N+](=O)[O-])n1CCO` [MTZ, Metronidazole, reference compound], the IC50 worked out at 1.23 ± 0.125 µM.

A further series relates to Trichomonas vaginalis strain GT3. The series is described as above. It is filed as cell-based. The note with it: Trichomonas vaginalis, GT3; trophozoites, 48 h with compound then 48 h subculture without drug; read-out: IC50 (µM) T. vaginalis. The procedure: as §1, §2
On to `Clc1ccc(-n2cc3ccccc3n2)cc1` [Compound 8, 2-(4-Chlorophenyl)-2H-indazole], for which the IC50 was 0.107 ± 0.0031 µM.

As for `COc1ccc(-n2cc3ccccc3n2)cc1` [Compound 9, 2-(4-Methoxyphenyl)-2H-indazole], the IC50 was determined as 0.372 ± 0.0158 µM.

Consider `CSc1ccc(-n2cc3ccccc3n2)cc1` [Compound 11, 2-(4-(Methylthio)phenyl)-2H-indazole], for which the IC50 stood at 0.273 ± 0.0147 µM.

For the compound `Oc1ccc(-n2cc3ccccc3n2)cc1` [Compound 12, 4-(2H-Indazol-2-yl) phenol], the IC50 was 0.157 ± 0.0135 µM.

Turning to `O=C(O)c1ccc(-n2cc3ccccc3n2)cc1` [Compound 13, 4-(2H-Indazol-2-yl) benzoic acid], the IC50 came to 0.327 ± 0.0178 µM.

On to `C[S+]([O-])c1ccc(-n2cc3ccccc3n2)cc1` (centres unmarked) [Compound 14, 2-(4-(Methylsulfinyl)phenyl)-2H-indazole], for which the IC50 amounted to 0.312 ± 0.011 µM.

As to `Cc1ncc([N+](=O)[O-])n1CCO` [MTZ, Metronidazole, reference compound], the IC50 came out at 0.236 ± 0.016 µM.

Test system in a further series: not given
Assay: not given
Settings: not given
As for `Clc1ccc(-n2cc3ccccc3n2)cc1` [Compound 8, 2-(4-Chlorophenyl)-2H-indazole], the melting point lay in the range of 143 to 145.5 °C.

For `COc1ccc(-n2cc3ccccc3n2)cc1` [Compound 9, 2-(4-Methoxyphenyl)-2H-indazole], the melting point was 133.2 to 135.8 °C.

With `CSc1ccc(-n2cc3ccccc3n2)cc1` [Compound 11, 2-(4-(Methylthio)phenyl)-2H-indazole], the melting point fell in the range of 148.3 to 149.7 °C.

`Oc1ccc(-n2cc3ccccc3n2)cc1` [Compound 12, 4-(2H-Indazol-2-yl) phenol] showed a melting point of 179 to 181 °C.

`O=C(O)c1ccc(-n2cc3ccccc3n2)cc1` [Compound 13, 4-(2H-Indazol-2-yl) benzoic acid]: the melting point lay in the range of 288.3 to 288.5 °C.

With `C[S+]([O-])c1ccc(-n2cc3ccccc3n2)cc1` (centres unmarked) [Compound 14, 2-(4-(Methylsulfinyl)phenyl)-2H-indazole], the melting point fell in the range of 150.1 to 152.7 °C.

Consider `CSc1ccc(-n2nc3ccccc3c2-c2ccccc2)cc1` [Compound 19, 2-(4-(Methylthio)phenyl)-3-phenyl-2H-indazole], for which the melting point fell in the range of 87.7 to 89 °C.

Regarding `CSc1ccc(-c2c3ccccc3nn2-c2ccccc2)cc1` [Compound 24, 3-(4-(Methylthio)phenyl)-2-phenyl-2H-indazole], the melting point lay within 119.3 to 121.4 °C.

Source of the values: PMC6150295, “Synthesis and Biological Evaluation of 2H-Indazole Derivatives: Towards Antimicrobial and Anti-Inflammatory Dual Agents” (Molecules : A Journal of Synthetic Chemistry and Natural …, 2017).
